Test results reported in paper PMC11277489, “Novel Piperazine Derivatives of Vindoline as Anticancer Agents” (International Journal of Molecular Sciences, 2024).
Where two headings read alike, the source gives them in different places.

What was measured:
[1] = system: 60 human tumor cell lines (NCI60); assay: NCI60 five-dose screen, whole panel and sub-panel means; format: cell-based; settings: Homo sapiens
CAKI-1 [2] = assay: NCI60 five-dose screen, Renal Cancer; format: cell-based; settings: Homo sapiens; CAKI-1, Renal Cancer; five-dose screen; read-out: GI50
NCI-H226 = assay: NCI60 one-dose screen (10 μM), Non-small Cell Lung Cancer; format: cell-based; settings: Homo sapiens; 10 μM; NCI-H226, Non-small Cell Lung Cancer; read-out: Growth percent rate
CCRF-CEM = assay: NCI60 five-dose screen, Leukemia; format: cell-based; settings: Homo sapiens, Leukemia, five-dose screen, read-out: GI50
MDA-MB231ATCC = assay: NCI60 five-dose screen, Breast Cancer; format: cell-based; settings: Homo sapiens, MDA-MB-231; MDA-MB231ATCC, Breast Cancer; five-dose screen; read-out: GI50
SK-OV-3 = assay: NCI60 one-dose screen (10 μM), Ovarian Cancer; format: cell-based; settings: Homo sapiens; 10 μM; SK-OV-3, Ovarian Cancer; read-out: Growth percent rate
SK-MEL-5 = assay: NCI60 five-dose screen, Melanoma; format: cell-based; settings: Homo sapiens; SK-MEL-5, Melanoma; five-dose screen; read-out: GI50
SR = assay: NCI60 one-dose screen (10 μM), Leukemia; format: cell-based; settings: Homo sapiens, 10 μM, Leukemia, read-out: Growth percent rate
NCI-H460 = assay: NCI60 five-dose screen, Non-small Cell Lung Cancer; format: cell-based; settings: Homo sapiens; NCI-H460, Non-small Cell Lung Cancer; five-dose screen; read-out: GI50
CAKI-1 [3] = assay: NCI60 one-dose screen (10 μM), Renal Cancer; format: cell-based; settings: Homo sapiens; 10 μM; CAKI-1, Renal Cancer; read-out: Growth percent rate
NCI-H23 [4] = assay: NCI60 one-dose screen (10 μM), Non-small Cell Lung Cancer; format: cell-based; settings: Homo sapiens; 10 μM; NCI-H23, Non-small Cell Lung Cancer; read-out: Growth percent rate
ACHN = assay: NCI60 five-dose screen, Renal Cancer; format: cell-based; settings: Homo sapiens, Renal Cancer, five-dose screen, read-out: GI50
PC-3 = assay: NCI60 one-dose screen (10 μM), Prostate Cancer; format: cell-based; settings: Homo sapiens; 10 μM; PC-3, Prostate Cancer; read-out: Growth percent rate
M14 = assay: NCI60 five-dose screen, Melanoma; format: cell-based; settings: Homo sapiens; M14, Melanoma; five-dose screen; read-out: GI50
EKVX = assay: NCI60 one-dose screen (10 μM), Non-small Cell Lung Cancer; format: cell-based; settings: Homo sapiens, 10 μM, Non-small Cell Lung Cancer, read-out: Growth percent rate
MOLT-4 = assay: NCI60 five-dose screen, Leukemia; format: cell-based; settings: Homo sapiens; MOLT-4, Leukemia; five-dose screen; read-out: GI50
NCI-H23 [5] = assay: NCI60 five-dose screen, Non-small Cell Lung Cancer; format: cell-based; settings: Homo sapiens; NCI-H23, Non-small Cell Lung Cancer; five-dose screen; read-out: GI50
UACC-62 [6] = assay: NCI60 five-dose screen, Melanoma; format: cell-based; settings: Homo sapiens; UACC-62, Melanoma; five-dose screen; read-out: GI50
UACC-62 [7] = assay: NCI60 one-dose screen (10 μM), Melanoma; format: cell-based; settings: Homo sapiens; 10 μM; UACC-62, Melanoma; read-out: Growth percent rate
NCI/ADR-RES = assay: NCI60 five-dose screen, Ovarian Cancer; format: cell-based; settings: Homo sapiens, Ovarian Cancer, five-dose screen, read-out: GI50
OVCAR-5 [8] = assay: NCI60 five-dose screen, Ovarian Cancer; format: cell-based; settings: Homo sapiens; OVCAR-5, Ovarian Cancer; five-dose screen; read-out: GI50
MDA-MB-435 = assay: NCI60 one-dose screen (10 μM), Melanoma; format: cell-based; settings: Homo sapiens; 10 μM; MDA-MB-435, Melanoma; read-out: Growth percent rate
HCC-2998 [9] = assay: NCI60 five-dose screen, Colon Cancer; format: cell-based; settings: Homo sapiens; HCC-2998, Colon Cancer; five-dose screen; read-out: GI50
OVCAR-5 [10] = assay: NCI60 one-dose screen (10 μM), Ovarian Cancer; format: cell-based; settings: Homo sapiens; 10 μM; OVCAR-5, Ovarian Cancer; read-out: Growth percent rate
MALME-3M = assay: NCI60 five-dose screen, Melanoma; format: cell-based; settings: Homo sapiens; MALME-3M, Melanoma; five-dose screen; read-out: GI50
HCC-2998 [11] = assay: NCI60 one-dose screen (10 μM), Colon Cancer; format: cell-based; settings: Homo sapiens; 10 μM; HCC-2998, Colon Cancer; read-out: Growth percent rate
UACC-257 = assay: NCI60 five-dose screen, Melanoma; format: cell-based; settings: Homo sapiens; UACC-257, Melanoma; five-dose screen; read-out: GI50
OVCAR-4 [12] = assay: NCI60 one-dose screen (10 μM), Ovarian Cancer; format: cell-based; settings: Homo sapiens; 10 μM; OVCAR-4, Ovarian Cancer; read-out: Growth percent rate
MDA-MB-231/ATCC = assay: NCI60 one-dose screen (10 μM), Breast Cancer; format: cell-based, human; settings: Homo sapiens; 10 μM; MDA-MB-231/ATCC, Breast Cancer; read-out: Growth percent rate
BT-549 = assay: NCI60 one-dose screen (10 μM), Breast Cancer; format: cell-based; settings: Homo sapiens; 10 μM; BT-549, Breast Cancer; read-out: Growth percent rate
UO-31 = assay: NCI60 one-dose screen (10 μM), Renal Cancer; format: cell-based; settings: Homo sapiens; 10 μM; UO-31, Renal Cancer; read-out: Growth percent rate
HL-60(TB) = assay: NCI60 five-dose screen, Leukemia; format: cell-based; settings: Homo sapiens; HL-60(TB), Leukemia; five-dose screen; read-out: GI50
NCI-H322M = assay: NCI60 five-dose screen, Non-small Cell Lung Cancer; format: cell-based; settings: Homo sapiens, Non-small Cell Lung Cancer, five-dose screen, read-out: GI50
MDA-MB-468 = assay: NCI60 one-dose screen (10 μM), Breast Cancer; format: cell-based; settings: Homo sapiens; 10 μM; MDA-MB-468, Breast Cancer; read-out: Growth percent rate
HOP-92 [13] = assay: NCI60 five-dose screen, Non-small Cell Lung Cancer; format: cell-based; settings: Homo sapiens; HOP-92, Non-small Cell Lung Cancer; five-dose screen; read-out: GI50
MCF7 = assay: NCI60 five-dose screen, Breast Cancer; format: cell-based; settings: Homo sapiens; MCF7, Breast Cancer; five-dose screen; read-out: GI50
HOP-62 = assay: NCI60 five-dose screen, Non-small Cell Lung Cancer; format: cell-based; settings: Homo sapiens; HOP-62, Non-small Cell Lung Cancer; five-dose screen; read-out: GI50
OVCAR-4 [14] = assay: NCI60 five-dose screen, Ovarian Cancer; format: cell-based; settings: Homo sapiens; OVCAR-4, Ovarian Cancer; five-dose screen; read-out: GI50
A549/ATCC = assay: NCI60 five-dose screen, Non-small Cell Lung Cancer; format: cell-based; settings: Homo sapiens; A549/ATCC, Non-small Cell Lung Cancer; five-dose screen; read-out: GI50
SW-620 = assay: NCI60 five-dose screen, Colon Cancer; format: cell-based; settings: Homo sapiens; SW-620, Colon Cancer; five-dose screen; read-out: GI50
HOP-92 [15] = assay: NCI60 one-dose screen (10 μM), Non-small Cell Lung Cancer; format: cell-based; settings: Homo sapiens; 10 μM; HOP-92, Non-small Cell Lung Cancer; read-out: Growth percent rate
T-47D = assay: NCI60 one-dose screen (10 μM), Breast Cancer; format: cell-based; settings: Homo sapiens, T47D; 10 μM; T-47D, Breast Cancer; read-out: Growth percent rate
[16] = 60 cell, mean over all 60 cell lines, read-out: GI50 Mean
[17] = mean over Breast Cancer panel, read-out: GI50 Mean
[18] = mean over CNS Cancer panel, read-out: GI50 Mean
[19] = mean over Colon Cancer panel, read-out: GI50 Mean
[20] = mean over Leukemia panel, read-out: GI50 Mean
[21] = mean over Melanoma panel, read-out: GI50 Mean
[22] = mean over Non-small Cell Lung Cancer panel, read-out: GI50 Mean
[23] = mean over Ovarian Cancer panel, read-out: GI50 Mean
[24] = mean over Prostate Cancer panel, read-out: GI50 Mean
[25] = mean over Renal Cancer panel, read-out: GI50 Mean

CC[C@]12C=CCN3CC[C@@]4(c5ccc(OC)cc5N(C)[C@H]4[C@@](O)(C(=O)OC)[C@@H]1OC(=O)CCC(=O)N1CCN(Cc4ccc(C(F)(F)F)cc4)CC1)[C@@H]32 [Compound 29]
GI50 [1, 16]: 9760 nM
GI50 [1, 17]: 8720 nM
GI50 [1, 18]: 11100 nM
GI50 [1, 19]: 9710 nM
GI50 [1, 20]: 9070 nM
GI50 [1, 21]: 9420 nM
GI50 [1, 22]: 10400 nM
GI50 [1, 23]: 10600 nM
GI50 [1, 24]: 7300 nM
GI50 [1, 25]: 9900 nM
GI50 (CAKI-1 [2]): 8710 nM
activity at 10 µM (NCI-H226): 16.7%
GI50 (CCRF-CEM): 11800 nM
GI50 (MDA-MB231ATCC): 14100 nM
activity at 10 µM (SK-OV-3): 12.4%
GI50 (SK-MEL-5): 3890 nM
activity at 10 µM (SR): -48.3%
GI50 (NCI-H460): 10500 nM
activity at 10 µM (CAKI-1 [3]): 6.02%
activity at 10 µM (NCI-H23 [4]): 29.4%
GI50 (ACHN): 10700 nM
activity at 10 µM (PC-3): 2.13%
GI50 (M14): 8130 nM
activity at 10 µM (EKVX): 25.4%
GI50 (MOLT-4): 5250 nM
GI50 (NCI-H23 [5]): 12000 nM
GI50 (UACC-62 [6]): 11000 nM
activity at 10 µM (UACC-62 [7]): -19.7%
GI50 (NCI/ADR-RES): 12300 nM
GI50 (OVCAR-5 [8]): 14400 nM
activity at 10 µM (MDA-MB-435): 3.59%
GI50 (HCC-2998 [9]): 12900 nM
activity at 10 µM (OVCAR-5 [10]): 15.2%
GI50 (MALME-3M): 11500 nM
activity at 10 µM (HCC-2998 [11]): -52.6%
GI50 (UACC-257): 11500 nM
activity at 10 µM (OVCAR-4 [12]): 10.5%
activity at 10 µM (MDA-MB-231/ATCC): 3.02%
activity at 10 µM (BT-549): -54.5%
activity at 10 µM (UO-31): 5.16%
GI50 (HL-60(TB)): 12900 nM
GI50 (NCI-H322M): 14400 nM
activity at 10 µM (MDA-MB-468): -20.5%
GI50 (HOP-92 [13]): 4270 nM
GI50 (MCF7): 5620 nM
GI50 (HOP-62): 14100 nM
GI50 (OVCAR-4 [14]): 5620 nM
GI50 (A549/ATCC): 8320 nM
GI50 (SW-620): 11500 nM
activity at 10 µM (HOP-92 [15]): -22.6%
activity at 10 µM (T-47D): 24%

CC[C@]12C=CCN3CC[C@@]4(c5ccc(OC)cc5N(C)[C@H]4[C@@](O)(C(=O)OC)[C@@H]1OC(=O)CCCN1CCN(Cc4ccc(C(F)(F)F)cc4)CC1)[C@@H]32 [Compound 23]
GI50 [1, 16]: 1650 nM
GI50 [1, 17]: 1530 nM
GI50 [1, 18]: 1570 nM
GI50 [1, 19]: 1640 nM
GI50 [1, 20]: 1710 nM
GI50 [1, 21]: 1620 nM
GI50 [1, 22]: 1800 nM
GI50 [1, 23]: 1770 nM
GI50 [1, 24]: 1580 nM
GI50 [1, 25]: 1630 nM
GI50 ([1]; on almost all cell lines, five-dose screen, read-out: GI50): < 2000 nM
GI50 (CAKI-1 [2]): 1480 nM
activity at 10 µM (NCI-H226): -32.3%
GI50 (CCRF-CEM): 2040 nM
GI50 (MDA-MB231ATCC): 1740 nM
activity at 10 µM (SK-OV-3): -44%
GI50 (SK-MEL-5): 1350 nM
activity at 10 µM (SR): -55.2%
GI50 (NCI-H460): 1550 nM
activity at 10 µM (CAKI-1 [3]): -78%
activity at 10 µM (NCI-H23 [4]): -71.3%
GI50 (ACHN): 1780 nM
activity at 10 µM (PC-3): -72%
GI50 (M14): 1550 nM
activity at 10 µM (EKVX): -75.1%
GI50 (MOLT-4): 1150 nM
GI50 (NCI-H23 [5]): 1910 nM
GI50 (UACC-62 [6]): 1660 nM
activity at 10 µM (UACC-62 [7]): -91.5%
GI50 (NCI/ADR-RES): 1580 nM
GI50 (OVCAR-5 [8]): 1620 nM
activity at 10 µM (MDA-MB-435): -95.3%
GI50 (HCC-2998 [9]): 1510 nM
activity at 10 µM (OVCAR-5 [10]): -86%
GI50 (MALME-3M): 1580 nM
activity at 10 µM (HCC-2998 [11]): -83.6%
GI50 (UACC-257): 1740 nM
activity at 10 µM (OVCAR-4 [12]): -32.1%
activity at 10 µM (MDA-MB-231/ATCC): -94.4%
activity at 10 µM (BT-549): -92.4%
activity at 10 µM (UO-31): -69.5%
GI50 (HL-60(TB)): 1740 nM
GI50 (NCI-H322M): 2240 nM
activity at 10 µM (MDA-MB-468): -58.2%
GI50 (HOP-92 [13]): 1510 nM
GI50 (MCF7): 1550 nM
GI50 (HOP-62): 1740 nM
GI50 (OVCAR-4 [14]): 2040 nM
GI50 (A549/ATCC): 1780 nM
GI50 (SW-620): 1550 nM
activity at 10 µM (HOP-92 [15]): -70.7%
activity at 10 µM (T-47D): -20%
